In assay [1] the test system is S. epidermidis. As to the kind of experiment: Outer membrane permeabilization (NPN uptake) assay. The assay is classed as cell-based, Staphylococcus epidermidis. The note with it: peptides at MIC. How it is done:
(§1) FIG. 10. Membrane permeabilization and depolarization assays for several bacterial strains. […] FIG. 10B: Cytoplasmic membrane depolarization assays performed against P. aeruginosa PAO1 and the gut commensal B. fragilis ATCC25285.
(§2) Methods: Membrane depolarization assays. The cytoplasmic membrane depolarization activity of the peptides was determined by measurements of fluorescence of the membrane potential-sensitive dye, DiSC3(5). Briefly, A. baumannii ATCC19606, P. aeruginosa PAO1 and B. fragilis ATCC25285 were grown at 37° C. with agitation until they reached mid-log phase (OD600=0.5). […] Thereafter, the cells (100 μL) were incubated for 15 min with 20 nmol L^−1 of DiSC3(5) until a stable reduction of fluorescence was achieved, indicating the incorporation of the dye into the bacterial membrane. Membrane depolarization was then monitored by observing the change in the fluorescence emission intensity of the membrane potential-sensitive dye, DiSC3(5) (λex=622 nm, λem=670 nm), after the addition of peptides (100 μL solution at MIC values). […] The membrane permeability of the peptides was determined by using the N-phenyl-1-napthylamine (NPN) uptake assay. […] The background fluorescence was recorded at λex=350 nm and λem=420 nm. […]

For assay [2], the system named is B. fragilis ATCC25285. Description: Outer membrane permeabilization (NPN uptake) assay. The assay is classed as cell-based, Bacteroides fragilis. The conditions noted are these: peptides at MIC. How it is done:
as §1, §2

Assay [3] deals with P. aeruginosa PAO1. As to the kind of experiment: Outer membrane permeabilization (NPN uptake) assay. It counts as cell-based, Pseudomonas aeruginosa. The conditions noted are these: peptides at MIC. How it is done: as §1, §2
The test system of assay [4] is A. baumannii ATCC19606. Description: Outer membrane permeabilization (NPN uptake) assay. The assay is classed as cell-based, Acinetobacter baumannii. The note with it: peptides at MIC, compared to untreated control and polymyxin B. How it is done: (§3) FIG. 3. Synergy, resistance development and mechanism of action studies of encrypted peptides. […] (FIG. 3B) Evolution of resistance by A. baumannii to encrypted peptides derived from the CUB domain (red) or polymyxin B (gray) after 30 days of serial passaging in liquid nutrient broth. Peptides and antibiotics were used at sub-inhibitory concentrations. Cells were passaged every 48 h. […] (FIG. 3D) Cytoplasmic membrane depolarization effects of the encrypted peptides against A. baumannii. (FIG. 3E) NPN assays showing the effect of encrypted peptides derived from the CUB domain and natriuretic peptide on permeabilization of the outer membrane of A. baumannii.
In order to investigate the mode of action of encrypted peptides against bacterial cells, assays were performed to study their effects on the bacterial membrane. First, the ability of encrypted peptides to disrupt and depolarize the bacterial cytoplasmic membrane was assessed […]. 3,3′-dipropylthiadicarbocyanine iodide [DiSC3(5)] was used, a potentiometric fluorophore that accumulates and aggregates in the cytoplasmic membrane, quenching its fluorescence. Upon imbalances of the cytoplasmic membrane transmembrane potential, the fluorophore migrates to the cytoplasm or the outer environment, generating fluorescence. […]
Methods: Membrane depolarization assays. The cytoplasmic membrane depolarization activity of the peptides was determined by measurements of fluorescence of the membrane potential-sensitive dye, DiSC3(5). […] Thereafter, the cells (100 μL) were incubated for 15 min with 20 nmol L^−1 of DiSC3(5) until a stable reduction of fluorescence was achieved, indicating the incorporation of the dye into the bacterial membrane. Membrane depolarization was then monitored by observing the change in the fluorescence emission intensity of the membrane potential-sensitive dye, DiSC3(5) (λex=622 nm, λem=670 nm), after the addition of peptides (100 μL solution at MIC values). […] The membrane permeability of the peptides was determined by using the N-phenyl-1-napthylamine (NPN) uptake assay. […]

Assay [5] concerns A. baumannii. As to the kind of experiment: Bacterial resistance development assay (serial passaging). It counts as cell-based, Acinetobacter baumannii. The conditions noted are these: after 26 days of serial passaging at sub-inhibitory concentrations. How it is done:
as §3
In any antibiotic discovery effort, it is crucial to assess how readily the molecules identified select for resistance mechanisms in bacteria, as the emergence of resistance has hampered the antibiotic field since its very inception with the discovery of penicillin in 1928^38. To determine whether bacteria become resistant to encrypted peptides, longitudinal resistance assays were performed with peptides derived from the CUB domains 1 and 3 against A. baumannii, using polymyxin B as a control (FIG. 3B).
Methods: Bacterial resistance development assays. The evolution of resistance by A. baumannii cells to encrypted peptides was monitored for 30 days of serial passaging in liquid nutrient broth. […]

Ends that are not written are not given here.

In the case of “natriuretic peptide: peptide hormone responsible for inducing the excretion of sodium by the kidneys (P01160) (SLRRSSCFGGRMDRIGAQSGLGCNSFRY; ends and bridges not checked; cysteine pairing not given here; UniProt P01160 124-151, looked up)”, the “outer membrane permeabilization (NPN)” value in assay [1], in assay [2] and in assay [3] was “permeabilized” in each case. For the same substance, in assay [4], the “outer membrane permeabilization (NPN fluorescence)” value was “increased fluorescence”.
Regarding polymyxin B, the “increase of concentrations needed to kill A. baumannii” value in assay [5] is recorded as no more than 256 fold.

Values taken from patent US20240194290A1, “HIDDEN ANTIBIOTICS IN THE HUMAN PROTEOME” (THE TRUSTEES OF THE UNIVERSITY OF PENNSYLVANIA, priority 2021, published 2024).
